Patent publication US8008329B2 (Dong Wha Pharmaceutical Co., Ltd., priority 2008, dated 2011)
Where “and” joins values, the source holds several entries; their conditions need not be identical. Identical values can stand only once. Marks after values point to notes of the source that are not given here.

Key:
[1] = test system: osteoclast differentiation; assay: Osteoclast differentiation in co-culture of mouse bone marrow cells and calvarial osteoblasts, TRAP staining (Examples 1-7); format: cell-based; settings: day 7
[2] = test system: osteoclast differentiation; assay: Osteoclast differentiation in co-culture of mouse bone marrow cells and ST2 cells, TRAP staining (Examples 8-9); format: cell-based; settings: for activity at 0.1 µM: Mus musculus, Osteoclast, 168 h, day 7, read-out: % number of osteoclast (vs. solvent control group); for % number of osteoclast (vs. solvent control group): day 7
Summary of the method: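 Bone marrow cells from 6-8-week male ddY mice were co-cultured with ST2 stromal cells under 10^−8 M vitamin D3 and 10^−8 M dexamethasone, with compounds at 0.1 μM final (0.1% DMSO control), refreshed on days 3 and 5. On day 7, TRAP-positive osteoclasts with ≥6 nuclei were counted and expressed as % of solvent control (n=4).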

[3] = Mus musculus, Osteoclast, 168 h, individual treatment of Compound (0.1 μM), read-out: % number of osteoclast (vs. solvent control group)
[4] = combination treatment of alendronic acid (0.2 μM) with compound (0.1 μM)
[5] = combination treatment of clodronic acid (1 μM) with compound (0.1 μM)
[6] = combination treatment of etidronic acid (2 μM) with compound (0.1 μM)
[7] = combination treatment of ibandronic acid (0.1 μM) with compound (0.1 μM)
[8] = combination treatment of pamidronic acid (0.1 μM) with compound (0.1 μM)
[9] = combination treatment of risedronic acid (0.1 μM) with compound (0.1 μM)
[10] = combination treatment of zoledronic acid (0.01 μM) with compound (0.1 μM)
[11] = individual treatment of Compound (0.1 μM)
[12] = singly treated with 0.1 μM alendronic acid
[13] = Combination treatment (alendronic acid + compounds), 0.1 μM each
[14] = Combination treatment (risedronic acid + compounds), 0.1 μM each
[15] = Individual treatment (compounds), 0.1 μM
[16] = singly treated with 0.1 μM risedronic acid

Cc1nc(-c2ccc(OCCCCCOc3ccc(C(=N)NO)c(F)c3)cc2)c(C(C)C)s1 [Compound 187, N-hydroxy-2-fluoro-4-{5-[4-(5-isopropyl-2-methyl-1,3-thiazol-4-yl)-phenoxy]-pentyloxy}-benzamidine]
activity at 0.1 µM [1, 3]: 67% | % number of osteoclast (vs. solvent control group) [1, 4]: 32% and 32 ± 8.1*^#@ % | % number of osteoclast (vs. solvent control group) [1, 5]: 60 ± 15.2*^#@ % | % number of osteoclast (vs. solvent control group) [1, 6]: 41% and 41 ± 7.5*^#@ % | % number of osteoclast (vs. solvent control group) [1, 7]: 42% and 42 ± 8.1*^#@ % | % number of osteoclast (vs. solvent control group) [1, 8]: 47% and 47 ± 10.5*^#@ % | % number of osteoclast (vs. solvent control group) [1, 9]: 40% and 40 ± 6.6*^#@ % | % number of osteoclast (vs. solvent control group) [1, 10]: 43% and 43 ± 4.5*^#@ % | % number of osteoclast (vs. solvent control group) [1, 11]: 67% and 67 ± 7.4 %

CCCCCN(C)CCC(O)(P(=O)(O)O)P(=O)(O)O [ibandronic acid, reference compound]
activity at 0.1 µM ([1]; Mus musculus, Osteoclast, 168 h, individual treatment of ibandronic acid (0.1 μM), read-out: % number of osteoclast (vs. solvent control group)): 77% | % number of osteoclast (vs. solvent control group) ([1]; individual treatment of ibandronic acid (0.1 μM)): 77 ± 8.2 %

NCCCC(O)(P(=O)(O)O)P(=O)(O)O [alendronic acid, reference compound]
activity at 0.2 µM ([1]; Mus musculus, Osteoclast, 168 h, individual treatment of alendronic acid (0.2 μM), read-out: % number of osteoclast (vs. solvent control group)): 80% | % number of osteoclast (vs. solvent control group) ([1]; individual treatment of alendronic acid (0.2 μM)): 80 ± 5.7 % | activity at 0.1 µM [2, 12]: 76% | % number of osteoclast (vs. solvent control group) [2, 12]: 76 ± 6.2 %

CN(CCN1CCOCC1)c1nc(-c2ccc(OCCCCCOc3ccc(C(=N)NO)cc3)cc2)cs1 [Compound 119, N-hydroxy-4-[5-(4-{2-[methyl-(2-morpholinoethyl)amino]-1,3-thiazol-4-yl}phenoxy)pentyloxy]-benzamidine]
activity at 0.1 µM [1, 3]: 66% | % number of osteoclast (vs. solvent control group) [1, 4]: 29% and 29 ± 5.3*^#@ % | % number of osteoclast (vs. solvent control group) [1, 5]: 47% and 47 ± 13.0*^#@ % | % number of osteoclast (vs. solvent control group) [1, 6]: 38% and 38 ± 8.2*^#@ % | % number of osteoclast (vs. solvent control group) [1, 7]: 36 ± 9.8*^#@ % | % number of osteoclast (vs. solvent control group) [1, 8]: 37% and 37 ± 5.0*^#@ % | % number of osteoclast (vs. solvent control group) [1, 9]: 38% and 38 ± 6.8*^#@ % | % number of osteoclast (vs. solvent control group) [1, 10]: 42 ± 8.1*^#@ % | % number of osteoclast (vs. solvent control group) [1, 11]: 66 ± 8.3 % | % number of osteoclast (vs. solvent control group) [2, 13]: 29 ± 4.9^ab % | % number of osteoclast (vs. solvent control group) [2, 14]: 29 ± 8.7^ac % | activity at 0.1 µM [2, 15]: 78 ± 9%

CC(C)c1sc(N2CCOCC2)nc1-c1ccc(OCCCCCOc2ccc(C(=N)NO)cc2)cc1 [Compound 169, N-hydroxy-4-{5-[4-(5-isopropyl-2-morpholino-1,3-thiazol-4-yl)phenoxy]pentyloxy}-benzamidine]
activity at 0.1 µM [1, 3]: 78% | % number of osteoclast (vs. solvent control group) [1, 4]: 44% and 44 ± 7.4*^#@ % | % number of osteoclast (vs. solvent control group) [1, 5]: 59% and 59 ± 14.0*^#@ % | % number of osteoclast (vs. solvent control group) [1, 6]: 49% and 49 ± 9.7*^#@ % | % number of osteoclast (vs. solvent control group) [1, 7]: 54 ± 8.7*^#@ % | % number of osteoclast (vs. solvent control group) [1, 8]: 50% and 50 ± 8.7*^#@ % | % number of osteoclast (vs. solvent control group) [1, 9]: 42% and 42 ± 7.6*^#@ % | % number of osteoclast (vs. solvent control group) [1, 10]: 59 ± 8.2*^#@ % | % number of osteoclast (vs. solvent control group) [1, 11]: 78 ± 8.6 %

O=P(O)(O)C(O)(Cn1ccnc1)P(=O)(O)O [zoledronic acid, reference compound]
activity at 0.01 µM ([1]; Mus musculus, Osteoclast, 168 h, individual treatment of zoledronic acid (0.01 μM), read-out: % number of osteoclast (vs. solvent control group)): 84% | % number of osteoclast (vs. solvent control group) ([1]; individual treatment of zoledronic acid (0.01 μM)): 84 ± 4.1 %

O=P(O)(O)C(Cl)(Cl)P(=O)(O)O [clodronic acid, reference compound]
activity at 1 µM ([1]; Mus musculus, Osteoclast, 168 h, individual treatment of clodronic acid (1 μM), read-out: % number of osteoclast (vs. solvent control group)): 88% | % number of osteoclast (vs. solvent control group) ([1]; individual treatment of clodronic acid (1 μM)): 88 ± 9.7 %

CC(O)(P(=O)(O)O)P(=O)(O)O [etidronic acid, reference compound]
activity at 2 µM ([1]; Mus musculus, Osteoclast, 168 h, individual treatment of etidronic acid (2 μM), read-out: % number of osteoclast (vs. solvent control group)): 86% | % number of osteoclast (vs. solvent control group) ([1]; individual treatment of etidronic acid (2 μM)): 86 ± 6.9 %

O=P(O)(O)C(O)(Cc1cccnc1)P(=O)(O)O [risedronic acid, reference compound]
activity at 0.1 µM ([1]; Mus musculus, Osteoclast, 168 h, individual treatment of risedronic acid (0.1 μM), read-out: % number of osteoclast (vs. solvent control group)): ~82% | % number of osteoclast (vs. solvent control group) ([1]; individual treatment of risedronic acid (0.1 μM)): 82 ± 5.2 % | activity at 0.1 µM [2, 16]: 69% | % number of osteoclast (vs. solvent control group) [2, 16]: 69 ± 6.7 %

NCCC(O)(P(=O)(O)O)P(=O)(O)O [pamidronic acid, reference compound]
activity at 0.1 µM ([1]; Mus musculus, Osteoclast, 168 h, individual treatment of pamidronic acid (0.1 μM), read-out: % number of osteoclast (vs. solvent control group)): 82% | % number of osteoclast (vs. solvent control group) ([1]; individual treatment of pamidronic acid (0.1 μM)): 82 ± 6.7 %

CCCN(CCC)c1nc(-c2ccc(OCCCCCOc3ccc(C(=N)NO)cc3)cc2)c(CC)s1 [Compound 138, N-hydroxy-4-{5-[4-(2-dipropylamino-5-ethyl-1,3-thiazol-4-yl)phenoxy]pentyloxy}-benzamidine]
activity at 0.1 µM [1, 3]: 71% | % number of osteoclast (vs. solvent control group) [1, 4]: 32% and 32 ± 8.9*^#@ % | % number of osteoclast (vs. solvent control group) [1, 5]: 54 ± 11.9*^#@ % | % number of osteoclast (vs. solvent control group) [1, 6]: 40% and 40 ± 8.4*^#@ % | % number of osteoclast (vs. solvent control group) [1, 7]: 45 ± 7.6*^#@ % | % number of osteoclast (vs. solvent control group) [1, 8]: 42% and 42 ± 6.2*^#@ % | % number of osteoclast (vs. solvent control group) [1, 9]: 35% and 35 ± 8.2*^#@ % | % number of osteoclast (vs. solvent control group) [1, 10]: 48 ± 8.9*^#@ % | % number of osteoclast (vs. solvent control group) [1, 11]: 71 ± 6.5 % | % number of osteoclast (vs. solvent control group) [2, 13]: 18 ± 6.8^ab % | % number of osteoclast (vs. solvent control group) [2, 14]: 31 ± 3.2^ac % | activity at 0.1 µM [2, 15]: 57 ± 7.2%

Cc1nc(-c2ccc(OCCCCCOc3ccc(C(=N)NO)cc3)cc2)c(CN2CCN(C)CC2)s1 [Compound 294, N-hydroxy-4-(5-{4-[2-methyl-5-(4-methyl-piperazin-1-ylmethyl)-thiazol-4-yl]-phenoxy}-pentyloxy)-benzamidine]
% number of osteoclast (vs. solvent control group) [2, 13]: 13 ± 2.4^ab % | % number of osteoclast (vs. solvent control group) [2, 14]: 9 ± 2.7^ac % | activity at 0.1 µM [2, 15]: 27 ± 4.5%

CCc1sc(NC)nc1-c1ccc(OCCCCCOc2ccc(C(=N)NO)cc2)cc1 [Compound 96, N-hydroxy-4-{5-[4-(5-ethyl-2-methylamino-1,3-thiazol-4-yl)phenoxy]pentyloxy}-benzamidine]
% number of osteoclast (vs. solvent control group) [2, 13]: 55 ± 10.0% | % number of osteoclast (vs. solvent control group) [2, 14]: 34 ± 7.1^ac % | activity at 0.1 µM [2, 15]: 74 ± 8.1%

COCCN(CCOC)c1nc(-c2ccc(OCCCCCOc3ccc(C(=N)NO)cc3)cc2)c(CCN2CCOCC2)s1 [Compound 271, N-hydroxy-4-(5-{4-[2-[bis-(2-methoxy-ethyl)-amino]-5-(2-morpholin-4-yl-ethyl)-thiazol-4-yl]-phenoxy}-pentyloxy)-benzamidine]
% number of osteoclast (vs. solvent control group) [2, 13]: 13 ± 3.7^ab % | % number of osteoclast (vs. solvent control group) [2, 14]: 16 ± 2.9^ac % | activity at 0.1 µM [2, 15]: 30 ± 5.3%

C=Cc1sc(-c2cccnc2)nc1-c1ccc(OCCCCCOc2ccc(C(=N)NO)cc2)cc1 [Compound 79, N-hydroxy-4-{5-[4-(5-vinyl-2-(pyridin-3-yl)-1,3-thiazol-4-yl)phenoxy]pentyloxy}-benzamidine]
% number of osteoclast (vs. solvent control group) [2, 13]: 22 ± 6.7^ab % | % number of osteoclast (vs. solvent control group) [2, 14]: 16 ± 4.0^ac % | activity at 0.1 µM [2, 15]: 44 ± 7.5%

CC(C)c1nc(-c2ccc(OCCCCCOc3ccc(C(=N)NO)cc3)cc2)c(CCN2CCSCC2)s1 [Compound 245, N-hydroxy-4-(5-{4-[2-isopropyl-5-(2-thiomorpholin-4-yl-ethyl)-thiazol-4-yl]-phenoxy}-pentyloxy)-benzamidine]
% number of osteoclast (vs. solvent control group) [2, 13]: 23 ± 4.9^b % | % number of osteoclast (vs. solvent control group) [2, 14]: 16 ± 4.1^ac % | activity at 0.1 µM [2, 15]: 35 ± 5.7%

Cc1nc(-c2ccc(OCCCCCOc3ccc(C(=N)NO)cc3)cc2)c(CCNCCCOC(C)C)s1 [Compound 220, N-hydroxy-4-[5-(4-{5-[2-(3-isopropoxy-propylamino)-ethyl]-2-methyl-thiazol-4-yl}-phenoxy)-pentyloxy]-benzamidine]
% number of osteoclast (vs. solvent control group) [2, 13]: 53 ± 4.7^ab % | % number of osteoclast (vs. solvent control group) [2, 14]: 40 ± 5.1^ac % | activity at 0.1 µM [2, 15]: 69 ± 3.2%

N=C(NO)c1ccc(OCCCCCOc2ccc(-c3nc(N4CCOCC4)sc3CC3CCCC3)cc2)cc1 [Compound 168, N-hydroxy-4-{5-[4-(5-cyclopentylmethyl-2-morpholino-1,3-thiazol-4-yl)phenoxy]pentyloxy}-benzamidine]
% number of osteoclast (vs. solvent control group) [2, 13]: 39 ± 5.2^ab % | % number of osteoclast (vs. solvent control group) [2, 14]: 29 ± 9.7^ac % | activity at 0.1 µM [2, 15]: 70 ± 9.1%
